Results: patent US9192605B2, “Compositions and methods for treating parkinson's disease” (priority 2009, dated 2015)
Where two headings read alike, the source gives them in different places.

Tests used:
[1] = test system: rats; assay: locomotion, exploration and grooming of rats given low-dose haloperidol; format: in vivo, rat
[2] = for Freezing during “on” score / Motor Fluctuations (presence) score / Motor Fluctuations (severity) score / Rise from Chair score / ADL Speech score / Alternating Movements score / Changing position, i.e. turning in bed score / Dressing score / Dyskinesias (presence) score / Dyskinesias (severity) score / Feeding score / Gait score / Handwriting score / Hygiene score / Postural Tremor score / Rigidity score / Speech score / Swallowing score / Walking score / Rest Tremor score: 40 micrograms haloperidol/day oral, one patient; for Freezing during “on” score / Motor Fluctuations (presence) score / Motor Fluctuations (severity) score / Rise from Chair score: Baseline Time 1 score 0; for ADL Speech score / Alternating Movements score / Changing position, i.e. turning in bed score / Dressing score / Dyskinesias (presence) score / Dyskinesias (severity) score / Feeding score / Gait score / Handwriting score / Hygiene score / Postural Tremor score / Rigidity score / Speech score / Swallowing score / Walking score: Baseline Time 1 score 1; for Rest Tremor score: Baseline Time 1 score 2
[3] = clinical use as antipsychotic; cited from earlier work
[4] = target: dopamine D2 receptors (Homo sapiens, UniProt P14416); settings: PET with [11C]raclopride, over 24 hours, schizophrenia patients and volunteers; cited from earlier work
[5] = target: human cloned dopamine D2 receptors (Homo sapiens, UniProt P14416); settings: cited from earlier work

For `O=C(CCCN1CCC(O)(c2ccc(Cl)cc2)CC1)c1ccc(F)cc1` [haloperidol], the “behaviour of the animals” value ([1]; 0.0025 mg/kg/day, 5 days) was “heightened locomotion, active exploration and good grooming”, the “behaviour of the animals” value ([1]; 0.005 mg/kg, on days 3-5 or upon stopping the haloperidol) was “spontaneously increased locomotion and well-being” and the “behaviour of the animals” value ([1]; haloperidol 0.03 mg/kg down to 0.0025 mg/kg) was “heightened locomotion and active exploration”. For the same molecule, the “Freezing during “on” score” value ([2]; Score Time 2) was 0, the “Motor Fluctuations (presence) score” value ([2]; Score Time 2) was 0 and the “Motor Fluctuations (severity) score” value ([2]; Score Time 2) was 0. The “Rise from Chair score” value ([2]; Score Time 2) was 0, the “ADL Speech score” value ([2]; Score Time 2) was 0 and the “Alternating Movements score” value ([2]; Score Time 2) was 0. The “Changing position, i.e. turning in bed score” value ([2]; Score Time 2) was 1, the Dressing score ([2]; Score Time 2) was 1 and the “Dyskinesias (presence) score” value ([2]; Score Time 2) was 0. For the same molecule, the “Dyskinesias (severity) score” value ([2]; Score Time 2) was 0, the Feeding score ([2]; Score Time 2) was 1 and the Gait score ([2]; Score Time 2) was 0. For the same molecule, the Handwriting score ([2]; Score Time 2) was 1, the Hygiene score ([2]; Score Time 2) was 1 and the “Postural Tremor score” value ([2]; Score Time 2) was 1. The Rigidity score ([2]; Score Time 2) was 2, the Speech score ([2]; Score Time 2) was 0 and the Swallowing score ([2]; Score Time 2) was 0. The Walking score ([2]; Score Time 2) was 0, the “Rest Tremor score” value ([2]; Score Time 2) was 2 and the “Freezing during “on” score” value ([2]; Score Time 3) was 0. The “Motor Fluctuations (presence) score” value ([2]; Score Time 3) was 0, the “Motor Fluctuations (severity) score” value ([2]; Score Time 3) was 0 and the “Rise from Chair score” value ([2]; Score Time 3) was 0. The “ADL Speech score” value ([2]; Score Time 3) was 0, the “Alternating Movements score” value ([2]; Score Time 3) was 1 and the “Changing position, i.e. turning in bed score” value ([2]; Score Time 3) was 1. The Dressing score ([2]; Score Time 3) was 1, the “Dyskinesias (presence) score” value ([2]; Score Time 3) was 0 and the “Dyskinesias (severity) score” value ([2]; Score Time 3) was 0. For the same molecule, the Feeding score ([2]; Score Time 3) was 1, the Gait score ([2]; Score Time 3) was 1 and the Handwriting score ([2]; Score Time 3) was 1. For the same molecule, the Hygiene score ([2]; Score Time 3) was 1, the “Postural Tremor score” value ([2]; Score Time 3) was 1 and the Rigidity score ([2]; Score Time 3) was 2. It also gave a Speech score ([2]; Score Time 3) of 0, a Swallowing score ([2]; Score Time 3) of 0 and a Walking score ([2]; Score Time 3) of 0. For the same molecule, the “Rest Tremor score” value ([2]; Score Time 3) was 2, the “clinical observation: involuntary movements” value ([2]; Time 1 or Time 2, apart from resting tremor of right hand present at all times) was “No involuntary movements noted” and the overall conclusion ([2]; baseline to Time 1 and 2, most noticeable walking and overall presentation) was “A slight improvement from baseline to Time 1 and 2 on certain markers”. The “clinical observation: rigidity on palpation” value ([2]; elbow joint, no rigidity on left, 40 micrograms/day oral) was “Slight increase in rigidity on palpation of elbow joint on right side” and the “clinical observation: appearance, facial features” value ([2]; time 1 and 2 vs baseline, 40 micrograms/day oral) was “appeared brighter, less flat facial features”.

For `Cc1cc2c(s1)Nc1ccccc1N=C2N1CCN(C)CC1` [olanzapine], the “extrapyramidal signs (EPS) in patients” value [3] is given as “dose-dependent incidence of extrapyramidal signs”.

In the case of `OCCOCCN1CCN(C2=Nc3ccccc3Sc3ccccc32)CC1` [quetiapine], the “time course of human striatum D2 occupancy” value [4] is listed as “rapidly falls off within 24 hours” and the “extrapyramidal signs (EPS) in patients” value [3] is listed as “essentially no EPS occurs”.

For [^3H]quetiapine, the “rate of release from D2 receptors relative to [3H]haloperidol or [3H]chlorpromazine” value [5] is listed as “at least one hundred times faster”.
